Reference: BindingDB's records for doi:10.1021/acsmedchemlett.9b00552 (Bristol-Myers Squibb Research & Development, 2020)

Molecular target: T1, TGF-beta receptor type-1 (Homo sapiens, UniProt P36897)
T1 sequence (P36897 whole entry): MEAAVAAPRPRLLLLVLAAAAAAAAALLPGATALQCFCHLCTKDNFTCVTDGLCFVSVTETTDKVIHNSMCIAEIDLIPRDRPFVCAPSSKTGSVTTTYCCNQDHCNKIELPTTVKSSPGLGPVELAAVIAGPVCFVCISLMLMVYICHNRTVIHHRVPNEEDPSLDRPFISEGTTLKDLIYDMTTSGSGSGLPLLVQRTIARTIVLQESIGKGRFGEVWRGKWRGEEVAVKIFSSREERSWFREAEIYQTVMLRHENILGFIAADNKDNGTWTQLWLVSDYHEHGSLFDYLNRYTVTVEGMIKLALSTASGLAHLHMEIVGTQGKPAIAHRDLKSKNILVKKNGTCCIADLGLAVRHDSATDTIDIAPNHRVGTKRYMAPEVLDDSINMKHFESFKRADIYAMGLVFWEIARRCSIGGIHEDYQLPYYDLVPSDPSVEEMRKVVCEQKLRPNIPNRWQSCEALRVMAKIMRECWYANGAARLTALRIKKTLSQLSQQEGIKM
Test: Inhibition of TGFbetaR1 in TGFbeta-stimulated mink Mv1Lu cells assessed as reduction in SMAD nuclear translocation preincubated for 1 hr followed by TGFbeta-stimulation for 15 mins by array scan based method

Row | SMILES | IC50 [µM]
1 | Cc1cccc(-c2ncn(CC(F)F)c2-c2ccc3nccn3c2)n1 | 0.42
2 | N#Cc1cnc2ccc(-c3c(-c4ccc(F)c(Cl)c4)ncn3CCO)nn12 [6-(4-(3-chloro-4-fluorophenyl)-1-(2-hydroxyethyl)-1H-imidazol-5-yl)imidazo[1,2-b]pyridazine-3-carbonitrile] | 0.35
